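96-well plates; 48 h exposure; 5 concentrations. Endpoints by linear interpolation between flanking doses. Not reached: highest tested concentration assigned. Abbreviation: GI50, concentration required for 50% inhibition of growth.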 Active and inactive are the calls of the source. No stated cut-off is given here; in the data, active = GI50 up to about 1.1 µM and inactive = higher.
Legend:
Experiment in all cases: growth of human tumour cells (NCI), 48 h
IGROV-1 = tested on: IGROV-1
M14 = tested on: M14
SK-OV-3 = tested on: SK-OV-3
HL-60 = tested on: HL-60
SK-MEL-28 = tested on: SK-MEL-28
ACHN = tested on: ACHN
HT-29 = tested on: HT-29
UACC-257 = tested on: UACC-257
OVCAR-3 = tested on: OVCAR-3
MOLT-4 = tested on: MOLT-4
HCC 2998 = tested on: HCC 2998
RXF 631 = tested on: RXF 631
DMS-114 = tested on: DMS-114
HCT-15 = tested on: HCT-15
UO-31 = tested on: UO-31
A498 = tested on: A498
DMS-273 = tested on: DMS-273
SF-539 = tested on: SF-539
LXFL 529 = tested on: LXFL 529
SF-295 = tested on: SF-295
SK-MEL-5 = tested on: SK-MEL-5
EKVX = tested on: EKVX
NCI-H522 = tested on: NCI-H522
HCT-116 = tested on: HCT-116
HOP-18 = tested on: HOP-18
DLD-1 = tested on: DLD-1
SNB-19 = tested on: SNB-19
OVCAR-8 = tested on: OVCAR-8
TK-10 = tested on: TK-10
K562 = tested on: K562
COLO 205 = tested on: COLO 205
786-0 = tested on: 786-0
SK-MEL-2 = tested on: SK-MEL-2
RPMI-8226 = tested on: RPMI-8226
KM12 = tested on: KM12
LOX IMVI = tested on: LOX IMVI
NCI-H460 = tested on: NCI-H460
OVCAR-5 = tested on: OVCAR-5
KM-20L2 = tested on: KM-20L2
HOP-62 = tested on: HOP-62
Malme-3M = tested on: Malme-3M
M19-MEL = tested on: M19-MEL
NCI-H226 = tested on: NCI-H226
CCRF-CEM = tested on: CCRF-CEM
U-251 = tested on: U-251
SF-268 = tested on: SF-268
A549 = tested on: A549
SN12C = tested on: SN12C
NCI-H23 = tested on: NCI-H23
SNB-78 = tested on: SNB-78
SNB-75 = tested on: SNB-75
SW-620 = tested on: SW-620
OVCAR-4 = tested on: OVCAR-4
HOP-92 = tested on: HOP-92
CAKI-1 = tested on: CAKI-1
UACC-62 = tested on: UACC-62
SR = tested on: SR
RXF 393 = tested on: RXF 393
XF498 = tested on: XF498

Measured: GI50

C/C(CN1C(=O)c2ccccc2C1=O)=N\NS(=O)(=O)c1ccccc1
inactive: IGROV-1 > 100 µM | M14 > 100 µM | SK-OV-3 > 100 µM | HL-60 > 100 µM | SK-MEL-28 > 100 µM | ACHN > 100 µM | HT-29 > 100 µM | UACC-257 > 100 µM | OVCAR-3 > 100 µM | MOLT-4 > 100 µM | HCC 2998 > 100 µM | RXF 631 > 100 µM | DMS-114 > 100 µM | UO-31 > 100 µM | A498 > 100 µM | DMS-273 > 100 µM | SF-539 > 100 µM | LXFL 529 > 100 µM | SF-295 > 100 µM | SK-MEL-5 > 100 µM | EKVX > 100 µM | NCI-H522 > 100 µM | HCT-116 > 100 µM | HOP-18 > 100 µM | DLD-1 > 100 µM | SNB-19 > 100 µM | OVCAR-8 > 100 µM | TK-10 > 100 µM | K562 > 100 µM | COLO 205 > 100 µM | 786-0 > 100 µM | SK-MEL-2 > 100 µM | RPMI-8226 > 100 µM | KM12 > 100 µM | LOX IMVI > 100 µM | NCI-H460 > 100 µM | OVCAR-5 > 100 µM | KM-20L2 > 100 µM | HOP-62 > 100 µM | Malme-3M > 100 µM | M19-MEL > 100 µM | NCI-H226 > 100 µM | CCRF-CEM > 100 µM | U-251 > 100 µM | SF-268 > 100 µM | A549 > 100 µM | SN12C > 100 µM | NCI-H23 > 100 µM | SNB-78 > 100 µM | SNB-75 > 100 µM | SW-620 > 100 µM | OVCAR-4 > 100 µM | HOP-92 > 100 µM | CAKI-1 > 100 µM | UACC-62 > 100 µM
> 100 µM: HCT-15

Brc1ccc(-c2nnc(-c3nn(-c4ccccc4)c4nc5ccccc5nc34)o2)cc1
inactive: IGROV-1 > 100 µM | M14 > 100 µM | SK-OV-3 > 100 µM | SR 27.8 µM | HL-60 27.3 µM | RXF 393 > 100 µM | SK-MEL-28 > 100 µM | ACHN > 100 µM | HT-29 > 100 µM | UACC-257 92 µM | OVCAR-3 95.7 µM | MOLT-4 33.5 µM | HCC 2998 > 100 µM | RXF 631 > 100 µM | DMS-114 26.7 µM | UO-31 > 100 µM | DMS-273 81.3 µM | SF-539 > 100 µM | LXFL 529 31.5 µM | SF-295 > 100 µM | SK-MEL-5 21.3 µM | EKVX > 100 µM | NCI-H522 > 100 µM | HCT-116 27.8 µM | HOP-18 > 100 µM | DLD-1 > 100 µM | SNB-19 > 100 µM | OVCAR-8 > 100 µM | TK-10 > 100 µM | K562 27 µM | COLO 205 > 100 µM | 786-0 > 100 µM | SK-MEL-2 60 µM | RPMI-8226 30.5 µM | KM12 > 100 µM | LOX IMVI > 100 µM | NCI-H460 > 100 µM | OVCAR-5 68.9 µM | KM-20L2 > 100 µM | HOP-62 > 100 µM | NCI-H226 > 100 µM | CCRF-CEM 26.1 µM | U-251 > 100 µM | SF-268 > 100 µM | A549 96.4 µM | SN12C > 100 µM | NCI-H23 > 100 µM | SNB-78 > 100 µM | SNB-75 > 100 µM | SW-620 > 100 µM | OVCAR-4 79.3 µM | HOP-92 > 100 µM | CAKI-1 > 100 µM | UACC-62 > 100 µM

COC(=O)C1CCC(C)CC1=O (stereo not given)
inactive: IGROV-1 > 100 µM | M14 > 100 µM | SK-OV-3 > 100 µM | HL-60 > 100 µM | RXF 393 > 100 µM | SK-MEL-28 > 100 µM | ACHN > 100 µM | XF498 > 100 µM | HT-29 > 100 µM | UACC-257 > 100 µM | OVCAR-3 > 100 µM | MOLT-4 > 100 µM | HCC 2998 > 100 µM | RXF 631 > 100 µM | DMS-114 > 100 µM | UO-31 > 100 µM | A498 > 100 µM | DMS-273 > 100 µM | SF-539 > 100 µM | LXFL 529 > 100 µM | SF-295 > 100 µM | SK-MEL-5 > 100 µM | EKVX > 100 µM | NCI-H522 > 100 µM | HCT-116 > 100 µM | DLD-1 > 100 µM | SNB-19 > 100 µM | OVCAR-8 > 100 µM | TK-10 > 100 µM | K562 > 100 µM | COLO 205 > 100 µM | 786-0 > 100 µM | SK-MEL-2 > 100 µM | RPMI-8226 > 100 µM | KM12 > 100 µM | LOX IMVI > 100 µM | NCI-H460 > 100 µM | OVCAR-5 > 100 µM | HOP-62 99.8 µM | Malme-3M > 100 µM | M19-MEL > 100 µM | CCRF-CEM > 100 µM | U-251 > 100 µM | SF-268 > 100 µM | A549 > 100 µM | SN12C > 100 µM | NCI-H23 > 100 µM | SNB-78 > 100 µM | SNB-75 > 100 µM | SW-620 > 100 µM | OVCAR-4 > 100 µM | HOP-92 > 100 µM | CAKI-1 > 100 µM | UACC-62 > 100 µM
> 100 µM: HCT-15
